# According to US7365096B2, “Methods for selectively inhibiting Janus tyrosine kinase 3 (Jak3)” (Board of Regents, The University of Texas System, priority 2002, dated 2008):
# “Also recorded” adds a separate entry of the source.
# How the values were obtained:
# Stat5a/b = Stat5a/b DNA binding, EMSA in PHA activated T-cells; format: cell-based, human; details: increasing concentrations
# Experimental: EMSA. Electrophoretic mobility shift assay (EMSA). Drug or vehicle control (DMSO) treated cells were pelleted by centrifugation (20,000×g for 1 min at 4° C.) and subsequently washed in five volumes of 10 mM HEPES, pH 7.9, 10 mM KCl, 1.5 mM MgCl2, 0.5 mM DTT, […], 5 μg/ml aprotinin, 1 μg/ml pepstatin A and 2 μg/ml leupeptin, centrifuged, then lysed in the same buffer supplemented with 1% NP-40 and incubated for 20 min on ice. The nuclei-containing pellet was resuspended in equal volumes of low salt buffer (10 mM HEPES, 25% glycerol, 1.5 mM MgCl2, 20 mM KCl, 0.5 mM DTT, 0.2 mM EDTA and protease inhibitors) and high salt buffer (low salt buffer containing 800 mM KCl). This fraction was then isolated by centrifugation at 4° C. for 10 min and supernatants saved as nuclear protein extract and stored at −70° C. Gel mobility shift assays were performed to detect Stat5a/b DNA binding activity using a Stat5 DNA binding sequence corresponding to the promoter of the β-casein gene (5′-[…]-3′) or an NF-kB binding element (5′-[…]-3′). Both probes were end-labeled with [^32P]dATP. […]
# In FIG. 9A, it can be seen that NC1153 inhibits Jak3 driven transcription factor-Stat5a/b in PHA activated T-cells treated with increasing concentrations of NC1153 in a dose dependent manner as measured via EMSA analysis (upper panel). […]
# FGFR3 = FGFR3 (Homo sapiens, UniProt P22607); assay: Kinase substrate phosphorylation (FIG. 9C); format: biochemical; details: 10 or 50 μM
# FGFR3, sequence (P22607 23-806, species assumed): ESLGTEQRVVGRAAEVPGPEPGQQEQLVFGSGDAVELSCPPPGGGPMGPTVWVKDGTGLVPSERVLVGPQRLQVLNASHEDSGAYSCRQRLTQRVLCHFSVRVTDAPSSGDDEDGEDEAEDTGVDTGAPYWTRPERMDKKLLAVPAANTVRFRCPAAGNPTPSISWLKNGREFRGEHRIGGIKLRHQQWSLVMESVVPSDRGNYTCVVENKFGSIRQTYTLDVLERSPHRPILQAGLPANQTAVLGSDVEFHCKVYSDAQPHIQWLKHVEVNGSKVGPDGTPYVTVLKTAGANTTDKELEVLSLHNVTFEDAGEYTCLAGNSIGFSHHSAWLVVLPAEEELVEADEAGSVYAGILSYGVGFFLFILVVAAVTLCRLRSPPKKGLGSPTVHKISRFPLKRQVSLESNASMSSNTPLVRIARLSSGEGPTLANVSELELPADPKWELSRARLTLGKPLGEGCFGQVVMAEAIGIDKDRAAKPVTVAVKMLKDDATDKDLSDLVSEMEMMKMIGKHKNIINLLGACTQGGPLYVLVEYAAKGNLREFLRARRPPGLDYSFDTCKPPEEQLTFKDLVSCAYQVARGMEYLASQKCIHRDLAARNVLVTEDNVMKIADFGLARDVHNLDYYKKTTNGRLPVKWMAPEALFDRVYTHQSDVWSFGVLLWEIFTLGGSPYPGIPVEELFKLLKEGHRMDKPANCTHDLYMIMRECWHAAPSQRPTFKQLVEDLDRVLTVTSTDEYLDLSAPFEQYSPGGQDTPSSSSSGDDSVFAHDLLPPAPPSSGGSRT
# Experimental: (§1) Non-Jak3 mediated NfκB activation by TNF-α was not affected within the same treatment set (lower panel). […] Prolactin [PRL] (+) or (−) indicates whether the cells were stimulated with prolactin with Jak2 activation. Phosphotyrosine Western blots detect Jak2-Stat5 activation but no inhibition by 649641P (NC1153). […] 649641P (NC1153) was tested at 10 (open bars) or 50 μM (filled bars) to block growth factor tyrosine kinases (FGFR3 and PDGFRα), Src family tyrosine kinases (Src, Fyn, Lck, Yes, Zap70) or serine threonine kinases (PKC and PKA) phosphorylation of a substrate. The activity of the control is plotted as a dashed line.
# (§2) In FIG. 9A, it can be seen that NC1153 inhibits Jak3 driven transcription factor-Stat5a/b in PHA activated T-cells treated with increasing concentrations of NC1153 in a dose dependent manner as measured via EMSA analysis (upper panel). The lane identified as “cold compete” contains unlabeled probe. However, non-Jak3 mediated NfκB activation (lower panel) by TNF-α was not affected within the same treatment set. […] Rat Nb2 cells were treated with increasing concentration of NC1153 and then stimulated with prolactin. Phosphotyrosine Western blots detect activation but no inhibition by NC1153. […] Activity of the control is plotted as a dashed line.
# Fyn = Fyn (Homo sapiens, UniProt P06241); assay: Kinase substrate phosphorylation (FIG. 9C); format: biochemical; details: 10 or 50 μM
# Fyn, sequence (P06241 whole entry, species assumed): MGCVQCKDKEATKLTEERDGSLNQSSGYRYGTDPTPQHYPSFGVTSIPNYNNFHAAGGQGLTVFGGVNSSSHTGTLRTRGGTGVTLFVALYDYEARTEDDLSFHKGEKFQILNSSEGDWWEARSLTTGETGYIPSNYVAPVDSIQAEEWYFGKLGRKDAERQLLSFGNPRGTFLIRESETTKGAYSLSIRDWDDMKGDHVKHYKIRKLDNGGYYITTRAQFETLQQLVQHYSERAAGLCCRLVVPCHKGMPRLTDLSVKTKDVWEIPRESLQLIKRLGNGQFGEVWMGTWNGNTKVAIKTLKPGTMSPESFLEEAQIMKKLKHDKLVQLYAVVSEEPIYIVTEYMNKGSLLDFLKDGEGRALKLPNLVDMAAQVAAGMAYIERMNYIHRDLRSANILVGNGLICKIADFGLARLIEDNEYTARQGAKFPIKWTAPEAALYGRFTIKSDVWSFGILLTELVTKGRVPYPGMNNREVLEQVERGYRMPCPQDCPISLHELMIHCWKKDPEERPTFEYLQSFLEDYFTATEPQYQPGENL
# Experimental: as §1, §2
# Lck = Lck (Homo sapiens, UniProt P06239); assay: Kinase substrate phosphorylation (FIG. 9C); format: biochemical; details: 10 or 50 μM
# Lck, sequence (P06239 whole entry, species assumed): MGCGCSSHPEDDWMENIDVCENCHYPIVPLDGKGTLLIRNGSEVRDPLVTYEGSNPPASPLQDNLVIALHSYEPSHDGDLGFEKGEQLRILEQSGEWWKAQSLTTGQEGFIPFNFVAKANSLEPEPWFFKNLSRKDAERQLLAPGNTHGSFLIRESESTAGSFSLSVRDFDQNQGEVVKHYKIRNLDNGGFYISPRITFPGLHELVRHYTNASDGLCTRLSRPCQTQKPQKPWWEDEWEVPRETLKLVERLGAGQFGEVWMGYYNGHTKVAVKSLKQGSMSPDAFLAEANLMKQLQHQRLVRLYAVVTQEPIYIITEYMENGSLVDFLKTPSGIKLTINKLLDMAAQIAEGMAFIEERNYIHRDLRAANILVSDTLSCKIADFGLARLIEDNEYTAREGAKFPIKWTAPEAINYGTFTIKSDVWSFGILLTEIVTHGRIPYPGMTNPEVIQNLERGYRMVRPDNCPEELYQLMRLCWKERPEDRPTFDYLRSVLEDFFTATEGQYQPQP
# Experimental: as §1, §2
# PDGFRα = PDGFRα (Homo sapiens, UniProt P16234); assay: Kinase substrate phosphorylation (FIG. 9C); format: biochemical; details: 10 or 50 μM
# PDGFRα, sequence (P16234 24-1089, species assumed): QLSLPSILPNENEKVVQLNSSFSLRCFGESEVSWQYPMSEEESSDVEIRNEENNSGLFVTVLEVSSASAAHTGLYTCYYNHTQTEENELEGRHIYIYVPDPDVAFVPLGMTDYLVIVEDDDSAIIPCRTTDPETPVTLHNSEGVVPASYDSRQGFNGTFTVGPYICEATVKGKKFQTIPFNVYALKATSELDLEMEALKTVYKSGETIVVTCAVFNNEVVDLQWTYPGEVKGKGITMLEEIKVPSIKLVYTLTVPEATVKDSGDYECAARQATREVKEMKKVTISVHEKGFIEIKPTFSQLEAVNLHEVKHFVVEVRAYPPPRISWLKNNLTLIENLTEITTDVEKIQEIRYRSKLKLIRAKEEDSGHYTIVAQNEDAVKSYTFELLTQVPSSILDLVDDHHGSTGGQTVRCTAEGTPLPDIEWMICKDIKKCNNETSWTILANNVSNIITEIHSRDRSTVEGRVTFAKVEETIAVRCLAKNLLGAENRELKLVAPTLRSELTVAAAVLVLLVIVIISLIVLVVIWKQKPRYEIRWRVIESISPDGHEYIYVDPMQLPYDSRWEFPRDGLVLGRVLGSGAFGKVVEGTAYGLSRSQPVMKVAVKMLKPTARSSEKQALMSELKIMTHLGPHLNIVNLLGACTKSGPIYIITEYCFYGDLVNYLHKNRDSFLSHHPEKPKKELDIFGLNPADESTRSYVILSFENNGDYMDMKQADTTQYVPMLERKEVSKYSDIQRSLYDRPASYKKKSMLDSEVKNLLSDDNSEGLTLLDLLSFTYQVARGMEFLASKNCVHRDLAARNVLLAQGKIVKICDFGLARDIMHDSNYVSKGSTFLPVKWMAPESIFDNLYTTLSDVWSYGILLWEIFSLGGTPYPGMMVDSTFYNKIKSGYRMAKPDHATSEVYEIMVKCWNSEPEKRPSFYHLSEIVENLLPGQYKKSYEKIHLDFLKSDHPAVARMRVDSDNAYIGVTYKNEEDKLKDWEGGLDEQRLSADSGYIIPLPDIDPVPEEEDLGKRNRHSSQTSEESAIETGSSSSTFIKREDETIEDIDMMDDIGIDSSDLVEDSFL
# Experimental: as §1, §2
# PKA = assay: Kinase substrate phosphorylation (FIG. 9C); format: biochemical; details: 10 or 50 μM
# Experimental: as §1, §2
# PKC = assay: Kinase substrate phosphorylation (FIG. 9C); format: biochemical; details: 10 or 50 μM
# Experimental: as §1, §2
# Src = Src (Homo sapiens, UniProt P12931); assay: Kinase substrate phosphorylation (FIG. 9C); format: biochemical; details: 10 or 50 μM
# Src, sequence (P12931 whole entry, species assumed): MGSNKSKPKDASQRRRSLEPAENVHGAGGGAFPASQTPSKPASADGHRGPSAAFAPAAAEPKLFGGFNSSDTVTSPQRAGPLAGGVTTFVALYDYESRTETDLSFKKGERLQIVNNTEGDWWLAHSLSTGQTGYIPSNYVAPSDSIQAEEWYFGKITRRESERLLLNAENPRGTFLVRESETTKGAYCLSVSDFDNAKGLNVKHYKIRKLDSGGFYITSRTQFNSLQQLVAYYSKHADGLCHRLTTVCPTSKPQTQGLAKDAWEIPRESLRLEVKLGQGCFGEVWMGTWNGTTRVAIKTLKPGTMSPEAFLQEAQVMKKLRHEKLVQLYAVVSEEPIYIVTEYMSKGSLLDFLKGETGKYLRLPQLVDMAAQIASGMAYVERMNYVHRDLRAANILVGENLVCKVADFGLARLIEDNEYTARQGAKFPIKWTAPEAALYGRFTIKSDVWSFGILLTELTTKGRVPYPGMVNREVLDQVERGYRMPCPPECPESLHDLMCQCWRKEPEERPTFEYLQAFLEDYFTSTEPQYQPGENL
# Experimental: as §1, §2
# Yes = Yes (Homo sapiens, UniProt P07947); assay: Kinase substrate phosphorylation (FIG. 9C); format: biochemical; details: 10 or 50 μM
# Yes, sequence (P07947 whole entry, species assumed): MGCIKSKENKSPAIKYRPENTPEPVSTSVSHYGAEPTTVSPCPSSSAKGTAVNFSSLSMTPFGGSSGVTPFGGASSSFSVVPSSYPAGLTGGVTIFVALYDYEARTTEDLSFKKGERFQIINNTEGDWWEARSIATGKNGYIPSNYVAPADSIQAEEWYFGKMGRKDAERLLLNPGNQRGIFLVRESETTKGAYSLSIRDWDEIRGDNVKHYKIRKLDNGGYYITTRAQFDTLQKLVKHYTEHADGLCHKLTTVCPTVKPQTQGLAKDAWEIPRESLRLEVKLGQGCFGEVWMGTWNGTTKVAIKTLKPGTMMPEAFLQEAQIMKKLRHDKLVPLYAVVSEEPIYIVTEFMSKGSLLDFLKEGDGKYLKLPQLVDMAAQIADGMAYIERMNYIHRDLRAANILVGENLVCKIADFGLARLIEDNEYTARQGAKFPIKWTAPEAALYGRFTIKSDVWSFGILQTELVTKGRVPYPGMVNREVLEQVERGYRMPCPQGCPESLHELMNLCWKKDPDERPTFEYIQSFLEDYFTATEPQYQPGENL
# Experimental: as §1, §2
# Zap70 = target: T1, Zap70 (Homo sapiens, UniProt P43403); assay: Kinase substrate phosphorylation (FIG. 9C); format: biochemical; details: 10 or 50 μM
# T1 sequence (P43403 1-619): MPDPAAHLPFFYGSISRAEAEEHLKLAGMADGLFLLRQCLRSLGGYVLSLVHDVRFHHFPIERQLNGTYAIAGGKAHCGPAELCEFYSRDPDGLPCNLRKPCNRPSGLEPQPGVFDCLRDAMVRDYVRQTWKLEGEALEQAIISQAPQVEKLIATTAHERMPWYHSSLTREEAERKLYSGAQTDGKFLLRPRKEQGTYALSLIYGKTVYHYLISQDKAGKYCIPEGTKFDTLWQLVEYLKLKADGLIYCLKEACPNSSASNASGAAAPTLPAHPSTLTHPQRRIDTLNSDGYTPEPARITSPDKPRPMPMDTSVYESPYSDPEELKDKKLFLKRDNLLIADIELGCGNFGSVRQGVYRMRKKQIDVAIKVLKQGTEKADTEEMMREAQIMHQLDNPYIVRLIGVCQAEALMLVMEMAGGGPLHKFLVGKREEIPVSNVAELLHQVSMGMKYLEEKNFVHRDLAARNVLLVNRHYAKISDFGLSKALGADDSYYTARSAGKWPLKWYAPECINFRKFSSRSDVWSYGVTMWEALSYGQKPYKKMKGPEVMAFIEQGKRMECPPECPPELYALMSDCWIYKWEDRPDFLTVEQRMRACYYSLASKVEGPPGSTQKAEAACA
# Experimental: as §1, §2
compound,measurement,setting,value
CN(C)CC1CCCCCCCCCC(CN(C)C)C1=O (mixture of isomers) [649641P (NC1153)],Stat5a/b DNA binding (EMSA),Stat5a/b,inhibits; also recorded: greatly impaired
same,Stat5a/b DNA binding (EMSA),Stat5a/b; listed as NC1153,inhibits
same,FGFR3 phosphorylation of a substrate,FGFR3,fails to affect the activity
same,FGFR3 phosphorylation of a substrate,FGFR3; listed as NC1153,fails to affect activity
same,Fyn phosphorylation of a substrate,Fyn,fails to affect the activity
same,Fyn phosphorylation of a substrate,Fyn; listed as NC1153,fails to affect activity
same,Lck phosphorylation of a substrate,Lck,fails to affect the activity
same,Lck phosphorylation of a substrate,Lck; listed as NC1153,fails to affect activity
same,PDGFRα phosphorylation of a substrate,PDGFRα,fails to affect the activity
same,PDGFRα phosphorylation of a substrate,PDGFRα; listed as NC1153,fails to affect activity
same,PKA phosphorylation of a substrate,PKA,fails to affect the activity
same,PKA phosphorylation of a substrate,PKA; listed as NC1153,fails to affect activity
same,PKC phosphorylation of a substrate,PKC,fails to affect the activity
same,PKC phosphorylation of a substrate,PKC; listed as NC1153,fails to affect activity
same,Src phosphorylation of a substrate,Src,fails to affect the activity
same,Src phosphorylation of a substrate,Src; listed as NC1153,fails to affect activity
same,Yes phosphorylation of a substrate,Yes,fails to affect the activity
same,Yes phosphorylation of a substrate,Yes; listed as NC1153,fails to affect activity
same,Zap70 phosphorylation of a substrate,Zap70,fails to affect the activity
same,Zap70 phosphorylation of a substrate,Zap70; listed as NC1153,fails to affect activity
